# Results as given in patent publication US7414071B2, “Methods of treatment with selective EP4 receptor agonists” (Pfizer Inc., priority 2002, dated 2008).
# Experiments:
# human EP1 receptor = biological target: T1, human EP1 receptor (Homo sapiens, UniProt P34995); test: Human EP1 receptor binding assay (displacement of 3H-prostaglandin E2 from 293S cell membranes); conditions: displacement of 3H-prostaglandin E2, 293S membranes
# T1 construct: expressed in transfected cells; membranes
# T1 sequence (P34995 1-402): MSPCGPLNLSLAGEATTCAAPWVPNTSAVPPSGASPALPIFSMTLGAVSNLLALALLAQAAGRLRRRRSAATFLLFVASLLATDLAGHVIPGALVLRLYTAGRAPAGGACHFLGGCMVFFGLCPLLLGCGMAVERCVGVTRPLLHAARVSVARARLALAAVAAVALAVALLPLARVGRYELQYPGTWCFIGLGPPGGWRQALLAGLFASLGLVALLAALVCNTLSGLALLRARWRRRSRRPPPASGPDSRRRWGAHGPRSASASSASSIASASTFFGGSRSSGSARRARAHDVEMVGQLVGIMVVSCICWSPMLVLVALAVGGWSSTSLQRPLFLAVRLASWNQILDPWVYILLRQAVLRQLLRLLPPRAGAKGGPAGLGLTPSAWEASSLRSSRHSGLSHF
# Text: (§1) The compounds of Formula I, which are useful in the methods of the present invention, bind to the prostaglandin E2 type 4 receptor (EP4 receptor). The full length coding sequence for the human EP1 receptor is made in accordance with the procedure in Funk et al., Journal of Biological Chemistry, 1993, 268, 26767-26772. The full length rat EP2 receptor is made in accordance with the procedure in Nemoto et al., Prostaglandins and other Lipid Mediators, 1997, 54, 713-725. The full length coding sequence for the human EP3 receptor is made in accordance with the procedure in Regan et al., British Journal of Pharmacology, 1994, 112, 377-385. The full length coding sequence for the rat EP4 receptor is made in accordance with the procedure in Sando et al., Biochem. Biophys. Res. Comm. 1994, 200, 1329-1333. These full length receptors are used to prepare 293S cells expressing the human EP1, rat EP2, human EP3 or rat EP4 receptors.
# (§2) The full length receptors described above are used to prepare 293S cells expressing the EP1, EP2, EP3, and EP4 receptors. […]
# (§3) Membrane Preparation: All operations are performed at 4° C. […] Pelleted membranes are resuspended to 3-10 mg protein per ml, protein concentration being determined of the method of Bradford [Bradford, M., Anal. Biochem. 1976, 72, 248]. […]
# rat EP2 receptor = biological target: T2, rat EP2 receptor (Rattus norvegicus, UniProt Q62928); test: Rat EP2 receptor binding assay (displacement of 3H-prostaglandin E2 from 293S cell membranes); conditions: displacement of 3H-prostaglandin E2, 293S membranes
# T2 construct: The full length rat EP2 receptor is made in accordance with the procedure in Nemoto et al; expressed in transfected cells; membranes
# Text: as §1, §2, §3
# human EP3 receptor = biological target: T3, human EP3 receptor (Homo sapiens, UniProt P43115); test: Human EP3 receptor binding assay (displacement of 3H-prostaglandin E2 from 293S cell membranes); conditions: displacement of 3H-prostaglandin E2, 293S membranes
# T3 construct: expressed in transfected cells; membranes
# T3 sequence (P43115 1-390): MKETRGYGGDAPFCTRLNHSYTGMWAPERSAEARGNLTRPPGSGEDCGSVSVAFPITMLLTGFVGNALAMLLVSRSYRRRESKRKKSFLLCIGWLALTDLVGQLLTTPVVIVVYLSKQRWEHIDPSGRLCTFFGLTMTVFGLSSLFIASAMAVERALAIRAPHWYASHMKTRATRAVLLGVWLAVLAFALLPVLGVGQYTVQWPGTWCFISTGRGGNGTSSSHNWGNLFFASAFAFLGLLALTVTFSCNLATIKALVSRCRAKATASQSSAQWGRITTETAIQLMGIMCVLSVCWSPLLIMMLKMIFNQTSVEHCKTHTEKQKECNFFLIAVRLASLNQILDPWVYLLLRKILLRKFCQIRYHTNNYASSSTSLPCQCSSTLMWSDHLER
# Text: as §1, §2, §3
# rat EP4 receptor = biological target: T4, rat EP4 receptor (Rattus norvegicus, UniProt P43114); test: Whole cell 3H-PGE2 binding with Scatchard analysis in 293S transfectants; conditions: cell line selected for compound screening
# T4 construct: expressed in transfected cells
# Experimental: Clonal cell lines expressing the maximal number of receptors are chosen following a whole cell ^3H-PGE2 binding assay using unlabeled PGE2 as a competitor. […] Constitutive expression of the receptor in parental 293-S cells is negligible. A stable cell line containing the rat EP4 receptor is grown in Dulbecco's Mosified Eagle Medium/F12 (DMEM/F12) containing 10% fetal bovine serum and G418 (500 μg/ml) to 80% confluency.
# T4 sequence (P43114 whole entry): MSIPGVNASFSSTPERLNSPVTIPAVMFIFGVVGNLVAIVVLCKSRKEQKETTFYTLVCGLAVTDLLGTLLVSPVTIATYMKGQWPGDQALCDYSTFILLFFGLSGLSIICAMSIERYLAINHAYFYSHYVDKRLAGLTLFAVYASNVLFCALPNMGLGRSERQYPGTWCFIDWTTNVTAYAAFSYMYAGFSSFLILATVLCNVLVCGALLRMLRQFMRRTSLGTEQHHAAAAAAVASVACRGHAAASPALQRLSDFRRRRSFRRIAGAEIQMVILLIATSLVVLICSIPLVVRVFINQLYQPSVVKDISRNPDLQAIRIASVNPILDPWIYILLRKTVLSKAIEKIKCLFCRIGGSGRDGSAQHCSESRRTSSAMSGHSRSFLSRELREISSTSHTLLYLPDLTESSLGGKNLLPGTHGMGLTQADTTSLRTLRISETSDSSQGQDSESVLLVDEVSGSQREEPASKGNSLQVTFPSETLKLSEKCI
# T2 sequence (Q62928 whole entry): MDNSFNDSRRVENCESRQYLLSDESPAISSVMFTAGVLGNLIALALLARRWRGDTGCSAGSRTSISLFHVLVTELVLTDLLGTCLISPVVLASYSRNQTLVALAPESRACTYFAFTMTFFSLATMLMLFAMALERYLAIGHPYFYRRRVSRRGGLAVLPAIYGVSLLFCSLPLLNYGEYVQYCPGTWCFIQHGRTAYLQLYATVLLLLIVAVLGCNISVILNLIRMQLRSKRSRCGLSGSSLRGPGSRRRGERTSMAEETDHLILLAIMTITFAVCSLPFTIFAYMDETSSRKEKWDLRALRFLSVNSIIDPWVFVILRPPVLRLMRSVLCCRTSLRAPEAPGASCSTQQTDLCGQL
SMILES,IC50 (human EP1 receptor) [nM],IC50 (rat EP2 receptor) [nM],IC50 (human EP3 receptor) [nM],Kd (rat EP4 receptor) [nM]
O=C(O)c1ccc(CCCN2C(=O)CC[C@@H]2CC[C@@H](O)Cc2cccc(C(F)(F)F)c2)s1 [Compound 3M],> 1000,463,> 1000,
"CCCCC[C@H](O)/C=C/[C@H]1[C@H](O)CC(=O)[C@@H]1C/C=C\CCCC(=O)O [PGE2, Prostaglandin E2]",,,,2.9
